Data on 16 compounds can be found in patent EP4745134A1 (Jiangsu Yahong Meditech Co., Ltd., priority 2023, dated 2025).

A value given as a limit tells only on which side of the number the result lay.

Assay [1] has as its target PRMT5-MTA (Homo sapiens, UniProt O14744). Kind of assay: Enzymatic inhibitory activity against PRMT5-MTA (AlphaScreen). The assay is classed as biochemical. The note with it: read-out: IC50. A digest of the protocol:
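PRMT5/[…] (1 nM) was preincubated for 30 min at room temperature with 1 µM […] and 2.5 µM SAM, then exposed to compound (10-point, 3-fold from 1000 nM) for 15 min at 23 °C. Histone H4 substrate (5 nM) was added and reacted for 45 min at 23 °C. Symmetric dimethyl-R3 H4 was detected by AlphaScreen and IC50 calculated.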

For assay [2], the system named is HCT116 MTAP KO cells. In words: Inhibitory activity against cell proliferation (CellTiter Glo, 6 days), HCT116 MTAP KO. The assay is classed as cell-based. The following applies: for IC50: Homo sapiens, HCT-116, 144 h, HCT116 MTAP KO cells, 6 days, CellTiter Glo, read-out: HCT116 MTAP KO IC50; for Selectivity HCT 116-WT/ HCT116 MTAP KO: ratio of IC50 HCT116-WT / HCT116 MTAP KO. The method, boiled down:
(§1)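 Cells were seeded at 250 per well in McCoy's 5A with 10% FBS and left overnight at 37°C, 5% CO2. Compounds were added as 8-point, 4-fold dilutions from 10000 nM, with DMSO-only controls, for 6 days. IC50 values came from CellTiter Glo luminescence.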

In assay [3] the test system is HCT116-WT cells. In words: Inhibitory activity against cell proliferation (CellTiter Glo, 6 days), HCT116-WT. The assay is classed as cell-based. The following applies: 144 h, HCT116-WT cells, 6 days, CellTiter Glo; read-out: HCT116-WT IC50. A digest of the protocol:
as §1

Sequence of PRMT5-MTA (O14744 whole entry): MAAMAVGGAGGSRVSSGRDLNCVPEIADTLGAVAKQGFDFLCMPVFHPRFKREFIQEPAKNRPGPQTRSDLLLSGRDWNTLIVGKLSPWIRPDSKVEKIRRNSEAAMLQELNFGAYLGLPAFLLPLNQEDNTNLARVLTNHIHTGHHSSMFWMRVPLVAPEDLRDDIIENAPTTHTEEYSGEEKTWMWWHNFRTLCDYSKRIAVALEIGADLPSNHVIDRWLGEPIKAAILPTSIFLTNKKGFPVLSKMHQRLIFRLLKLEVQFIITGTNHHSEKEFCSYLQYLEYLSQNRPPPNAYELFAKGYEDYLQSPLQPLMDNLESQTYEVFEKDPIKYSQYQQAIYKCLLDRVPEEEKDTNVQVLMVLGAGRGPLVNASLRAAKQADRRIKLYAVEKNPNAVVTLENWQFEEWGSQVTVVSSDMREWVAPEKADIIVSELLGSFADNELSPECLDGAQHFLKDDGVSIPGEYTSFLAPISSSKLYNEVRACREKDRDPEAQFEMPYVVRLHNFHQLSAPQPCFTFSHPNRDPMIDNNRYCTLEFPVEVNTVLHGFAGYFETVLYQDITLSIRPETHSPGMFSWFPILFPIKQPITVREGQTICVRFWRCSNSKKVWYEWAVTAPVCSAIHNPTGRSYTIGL
Sequence of PRMT5-MTA (Q9BQA1 whole entry partner): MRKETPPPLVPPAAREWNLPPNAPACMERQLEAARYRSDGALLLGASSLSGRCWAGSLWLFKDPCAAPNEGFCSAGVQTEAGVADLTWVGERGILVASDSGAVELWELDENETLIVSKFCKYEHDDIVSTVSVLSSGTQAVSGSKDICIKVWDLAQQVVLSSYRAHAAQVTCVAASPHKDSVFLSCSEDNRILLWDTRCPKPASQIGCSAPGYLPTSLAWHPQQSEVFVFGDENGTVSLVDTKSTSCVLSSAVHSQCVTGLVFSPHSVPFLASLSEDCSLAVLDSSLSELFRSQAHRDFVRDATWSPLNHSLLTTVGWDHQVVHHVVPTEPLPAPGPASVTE

Turning to `Cc1cc2cc(C(=O)N(Cc3ccc4ncccc4n3)N(C)c3ncccn3)ccc2nc1N` [Compound 283, N-((1,5-naphthyridin-2-yl)methyl)-2-ami no-N',3-dimethyl-N'-(pyrimidin-2-yl)qui noline-6-carbohydrazide], the 50% inhibitory concentration (IC50) was determined as 1.7 nM in assay [1], 244 nM in assay [2] and 2710 nM in assay [3]. Also, the “Selectivity HCT 116-WT/ HCT116 MTAP KO” value in assay [2] came to 11.11.
On the same counts, the results for `Cc1cc2cc(C(=O)N(Cc3ccc(C(F)(F)F)cn3)N(C)c3nccc4nccnc34)ccc2nc1N` [Example 107, 2-amino-N',3-dimethyl-N'-(pyrido[3,4-b]pyrazin-5-yl)-N-((5-(trifluoromethyl)pyridin-2-yl)methyl)quinoline-6-carbohydrazide] are 2.5 nM, 46 nM, 1620 nM and 35.15.
In the case of `Cc1cc2cc(C(=O)N(Cc3ccc(-c4cnn(C5CCC5)c4)cn3)N(C)c3ncccn3)ccc2nc1N` [Example 149, 2-amino-N-((5-(1-cyclobutyl-1H-pyrazol-4-yl)pyridin-2-yl)methyl)-N',3-dimethyl-N'-(pyrimidin-2-yl)quinoline-6-carbohydr azide], the IC50 in assay [1] was 2.9 nM; in assay [2], 99 nM; in assay [3] it was 1590 nM. Also, the “Selectivity HCT 116-WT/ HCT116 MTAP KO” value in assay [2] is on record as 16.02.
On the same counts, the results for `COC1CN(C(=O)c2cc3c(cc2C)nc(N)c2cnn(C)c23)N(c2ncc(Cl)cc2F)C1` (stereo not drawn) [Example 441, (4-amino-1,7-dimethyl-1H-pyrazolo[4,3-c]quinolin-8-y1)(2-(5-chloro-3-fluoropyridin-2-yl)-4-methoxypyrazolidin-1-yl)met hanone] are 7.2 nM, 48 nM, 1790 nM and 37.31.
On the same counts, the results for `Cc1cc2nc(N)c3cnn(C)c3c2cc1C(=O)N1CC(C)CN1c1ncc(C#CC(C)(C)O)cc1F` (stereo not drawn) [Example 493, (4-amino-1,7-dimethyl-1H-pyrazolo[4,3-c]quinolin-8-yl)(2-(3-fluoro-5-(3-hydroxy-3-methyl-but-1-yn-1-yl)pyridin-2-yl)-4-methylpyrazolidin-1-yl)methanone] are 5.1 nM, 68 nM, 1900 nM and 27.94.
As for `Cc1cc2cc(C(=O)N(Cc3ccc(-c4cnsc4)cn3)N(C)c3ncccn3)ccc2nc1N` [Example 157, 2-amino-N-((5-(isothiazol-4-yl)pyridin-2-yl)methyl)-N',3-dimethyl-N'-(pyrimidin-2-yl)quinoline-6-carbohydrazide], the values for the IC50 in assay [1], in assay [2] and in assay [3] were 6.9 nM, 14 nM and 361 nM, respectively. For the same compound, in assay [2], the “Selectivity HCT 116-WT/ HCT116 MTAP KO” value was 25.79.
Regarding `Cc1cc2cc(C(=O)N(Cc3ccc(N4CCC(F)(F)C4)cn3)N(C)c3ncccn3)ccc2nc1N` [Example 224, 2-amino-N-((5-(3,3-difluoropyrrolidin-1-yl)pyridin-2-yl)methyl)-N',3-dimethyl-N'-(pyrimidin-2-yl)quinoline-6-carbohydrazide], the IC50 in assay [1] is 16 nM; in assay [2] it was 470 nM; in assay [3] it was above 10000 nM.
On to `Cc1cc2cc(C(=O)N(Cc3ccc(-c4cncs4)cn3)N(C)c3nccc4nccnc34)ccc2nc1N` [Example 183, 2-amino-N',3-dimethyl-N'-(pyrido[3,4-b]pyrazin-5-yl)-N-((5-(thiazol-5-yl)pyridin-2-yl)methyl)quinoline-6-carbohydrazide], for which the values for the IC50 in assay [1], in assay [2] and in assay [3] were 3.9 nM, 17 nM and 318 nM, respectively. Moreover, the “Selectivity HCT 116-WT/ HCT116 MTAP KO” value in assay [2] was 18.71.
On the same counts, the results for `Cc1cc2cc(C(=O)N(Cc3ccc(C(F)(F)F)cn3)N(C)c3nccc4ccncc34)ccc2nc1N` [Example 266, 2-amino-N',3-dimethyl-N'-(2,7-naphthyridin-1-yl)-N-((5-(trifluoromethyl)pyridin-2-yl)methyl)quinoline-6-carbohydrazide] are 2.6 nM, 231 nM, 3140 nM and 13.60.
On the same counts, the results for `Cc1cc2cc(C(=O)N(Cc3ccc(C(F)(F)F)cn3)N(C)c3ncc(Cl)cn3)ccc2nc1N` [Example 69, 2-amino-N'-(5-chloropyrimidin-2-yl)-N', 3-dimethyl-N-((5-(trifluoromethyl)pyridin-2-yl)methyl)quinoline-6-carbohydrazide] are 2.4 nM, 216 nM, 3160 nM and 14.63.
On the same counts, the results for `CN(c1ncccn1)N(Cc1ccc(C(F)(F)F)cn1)C(=O)c1ccc2nc(N)c(Br)cc2c1` [Example 303, 2-amino-3-bromo-N'-methyl-N'-(pyrimidin-2-yl)-N-((5-(trifluoromethyl)pyridin-2-yl)methyl)quinoline-6-carbohydrazide] are 3 nM, 110 nM, 2990 nM and 27.20.
With `Cc1cc2cc(C(=O)N(Cc3ccc(-c4cnn(C)c4)cn3)N(c3ncccn3)C3CC3)ccc2nc1N` [Example 152, 2-amino-N'-cyclopropyl-3-methyl-N-((5-(1-methyl-1H-pyrazol-4-yl)pyridin-2-yl)methyl)-N'-(pyrimidin-2-yl)quinoline-6-c arbohydrazide], the IC50 in assay [1] is 4.4 nM; in assay [2], 35 nM; in assay [3], 998 nM. The “Selectivity HCT 116-WT/ HCT116 MTAP KO” value in assay [2] is listed as 28.51.
Take `Cc1cc2nc(N)c3cnn(C)c3c2cc1C(=O)N1CC(C)CN1c1cccc(C#N)n1` (stereo not drawn) [Example 365, 6-(2-(4-amino-1,7-dimethyl-1H-pyrazolo [4,3-c]quinoline-8-formyl)-4-methylpyrazolidin-1-yl)pyridinecarbonitrile]: the values for the IC50 in assay [1], in assay [2] and in assay [3] were 3.2 nM, 35 nM and 1690 nM, respectively. Also, the “Selectivity HCT 116-WT/ HCT116 MTAP KO” value in assay [2] was determined as 48.37.
On the same counts, the results for `Cc1cc2cc(C(=O)N(Cc3ccc(C(F)(F)F)cc3F)N(C)c3ncccn3)ccc2nc1N` [Example 90, 2-amino-N-(2-fluoro-4-(trifluoromethyl)benzyl)-N',3-dimethyl-N'-(pyrimidin-2-yl) quinoline-6-carbohydrazide] are 4.5 nM, 98 nM, 2170 nM and 22.13.
On the same counts, the results for `Cc1cc2nc(N)c3c(c2cc1C(=O)N1CC(C)CN1c1ncccc1F)COC3` (stereo not drawn) [Example 512, (4-amino-7-methyl-1,3-dihydrofuro[3,4-c]quinolin-8-yl)(2-(3-fluoropyridin-2-yl)-4-methylpyrazolidin-1-yl)methanone] are 5 nM, 259 nM, 5830 nM and 22.53.
On the same counts, the results for `Cc1cc2cc(C(=O)N(Cc3ccc(C4CCOCC4)cn3)N(C)c3ncccn3)ccc2nc1N` [Example 218, 2-amino-N',3-dimethyl-N'-(pyrimidin-2-yl)-N-((5-(tetrahydro-2H-pyran-4-yl)pyridin-2-yl)methyl)quinoline-6-carbohydrazide] are 7 nM, 291 nM, 3070 nM and 10.56.
